Assays:
[1] = Evaluation of pharmacokinetic parameters for Aripiprazole following single oral administration of azipiprazole.; assay type: ADME, organism-based; conditions: human, in vivo, dosed compound id 19, dosed compound name ARIPIPRAZOLE, regimen Single dose, tissue Plasma
[2] = Evaluation of pharmacokinetic parameters for Aripiprazole following oral, intravenous or intramuscular administration of azipiprazole.; assay type: ADME, organism-based; conditions: human, in vivo, dosed compound id 19, dosed compound name ARIPIPRAZOLE, tissue Plasma

Tmax [1]: 3 to 5 h | bioavailability ([2]; im, at 5 mg, gender male and female, route intramuscular): 100% | Tmax ([2]; im, gender male and female, route intramuscular): 1 h | Vd ([2]; route iv, read-out: Vss): 404 L
SMILES: O=C1CCc2ccc(OCCCCN3CCN(c4cccc(Cl)c4Cl)CC3)cc2N1 [ARIPIPRAZOLE]
